Paper PMC10726441, “Discovery of Tumor-Targeted 6-Methyl Substituted Pemetrexed and Related Antifolates with Selective Loss of RFC Transport” (ACS Medicinal Chemistry Letters, 2023)

Experiments:
PC43-10 (RFC) CHO cells = assay: Cell proliferation assay, PC43-10 CHO cells expressing human RFC; format: cell-based, Chinese hamster; settings: Cricetulus griseus, 96 h, 0-1000 nM, mean (standard error), 3-5 experiments
From the text: (§1) To assess the impact of 6-methyl substitutions on the bicyclic scaffolds of the pyrrolo[2,3-d]pyrimidine antifolates 1–4 on RFC transport vis-à-vis PCFT, FRα, and FRβ, we used a unique biological readout for transport activity. This involved proliferation assays with isogenic Chinese hamster ovary (CHO) sublines derived from RFC-, FR-, and PCFT-null MTXRIIOua^R2–4 CHO cells[39],[40] engineered to express the human FRα (RT16),[25] FRβ (D4),[25] RFC (PC43–10),[41] or PCFT (R2/PCFT4).[26],[42] As these CHO cell lines are genetically identical except for their folate transporters, differences in inhibition of cell proliferation by specific cytotoxic antifolates directly reflect transporter specificities.[19],[23]−[31],[42] […]
(§2) Reagents for biological studies. Leucovorin [(6R,S) 5-formyl tetrahydrofolate] and methotrexate (MTX) was provided by the Drug Development Branch, National Cancer Institute, Bethesda, MD. Other chemicals were obtained from commercial sources in the highest available purities. Pemetrexed (PMX; 1) [N-{4-[2- (2-amino-3,4-dihydro-4-oxo-7H-pyrrolo[2,3-d]pyrimidin-5-yl)ethyl]benzoyl-L-glutamic acid] (Alimta) was purchased from LC Laboratories (Woburn, MA). The syntheses of compounds 2 and 3 were previously described.7, 8 Additional chemicals were purchased from commercial sources in the highest available purities.
(§3) Cell Culture. The reduced folate carrier (RFC), proton-coupled folate transporter (SLC46A1; PCFT) and folate receptor (FR) α- and β-null Chinese hamster ovary (CHO) cell line MTXRIIOuaR2-49 was a gift from Dr. Wayne Flintoff (University of Western Ontario, London, ON). Four sublines were derived from the R2 subline by transfection with either RFC, PCFT, FRα, or FRβ, giving rise to PC43-10 (expresses human RFC), 10 R2/PCFT4 (expresses human PCFT),11 RT16 (expresses human FRα), 12 and D4 (expresses FRβ) cells. 12 Isogenic CHO sublines were routinely cultured in α-minimal essential medium (α-MEM) supplemented with 100 units/mL penicillin/100 μg/mL streptomycin, 2 mM L-glutamine and 10% bovine calf serum (Sigma-Aldrich). Transfected sublines of R2 cells were cultured in the presence of 1.5 mg/ml G418. […]
(§4) mM L-glutamine. Cell lines were tested for Mycoplasma by PCR using a Mycloplasma testing kit (Venor™ GeM Mycoplasma Detection Kit, Sigma). Frozen stocks were generated from authenticated Mycoplasma-free cultures.
(§5) For cell proliferation assays, CHO, KB, NCI-IGROV1 and IOSE 7576 cells were plated in 96-well dishes at densities ranging from 2500-5000 cells/well in 200 μL media and treated with a range of inhibitors spanning 0-1000 nM. Experiments with RT16, D4, IGROV1, IOSE 7576 and KB cells used folate-free RPMI 1640 (FF RPMI) media with 10% dialyzed fetal bovine serum and 100 units/mL penicillin/100 μg/mL streptomycin, supplemented with 2 nM leucovorin and 2 mM L-glutamine. FR-mediated drug uptake was assessed in parallel incubations including 200 nM folic acid. For R2/PCFT4, PC43-10 and R2 CHO cells, the medium was FF-RPMI supplemented with 10% dialyzed fetal bovine serum, 100 units/mL penicillin/100 μg/mL streptomycin, 25 nM leucovorin and 2 mM L-glutamine.
(§6) Cells were treated over a 96 h period at 37° C with 5% CO2 and relative cell numbers quantified using the CellTiter-blue cell viability assay (Promega, Madison, WI) and a fluorescence plate reader. Raw data were exported to Excel for analysis and the results were plotted using Graphpad Prism 6.0. Determinations of IC50s were made […]
(§7) assays have been previously described.7, 8, 11, 12, 15-20
(§8) Using KB cells, additional proliferation assays were performed with metabolite protection in folate- and glycine-free RPMI1640 with 10% dialyzed fetal bovine serum, 2 mM L-glutamine and antibiotics with 2 nM leucovorin to identify the targeted pathway and enzyme(s). 7, 8, 11, 12, 15-20 Inhibitory effects of the novel analogs on de novo thymidylate biosynthesis and de novo purine nucleotide biosynthesis were tested by incubating drugs with thymidine (10 μM) and adenosine (60 μM), respectively. […]

[1] = test system: MTXRIIOuaR2-4 CHO cells (R2; RFC-, PCFT-, and FR-null); assay: Cell proliferation assay, transporter-null R2 CHO cells; format: cell-based, Chinese hamster; settings: Cricetulus griseus, 96 h, 0-1000 nM, mean (standard error), 3-5 experiments
From the text: as §1, §2, §3, §4, §5, §6, §7, §8

[2] = test system: KB nasopharyngeal carcinoma cells; assay: Cell proliferation assay, KB tumor cells; format: cell-based, human; settings: for IC50: Homo sapiens, 96 h, 0-1000 nM, mean (standard error), 3-5 experiments
From the text: For the tumor cells, except the des-methyl compound 4 with IGROV1 cells, all compounds were inhibitory. […]
Reagents for biological studies. Leucovorin [(6R,S) 5-formyl tetrahydrofolate] and methotrexate (MTX) was provided by the Drug Development Branch, National Cancer Institute, Bethesda, MD. Other chemicals were obtained from commercial sources in the highest available purities. Pemetrexed (PMX; 1) [N-{4-[2- (2-amino-3,4-dihydro-4-oxo-7H-pyrrolo[2,3-d]pyrimidin-5-yl)ethyl]benzoyl-L-glutamic acid] (Alimta) was purchased from LC Laboratories (Woburn, MA). The syntheses of compounds 2 and 3 were previously described.7, 8 Additional chemicals were purchased from commercial sources in the highest available purities. […]
KB nasopharyngeal carcinoma cells were obtained from the American Type Culture Collection (Manassas, VA) and IGROV1 (NCI-IGROV1) (passage 5) ovarian adenocarcinoma cells13 were obtained from the Division of Cancer Treatment and Diagnosis, National Cancer Institute (Frederick, MD). Normal ovary cells immortalized with SV40 (IOSE 7576)14 were obtained from the Canadian OvCaRe Cell Bank […]
(Vancouver, B.C). IGROV1, KB and IOSE 7576 cells were cultured in complete FF-RPMI with 10% fetal bovine serum and 100 units/mL penicillin/100 μg/mL streptomycin, and 2 mM L-glutamine. Cell lines were tested for Mycoplasma by PCR using a Mycloplasma testing kit (Venor™ GeM Mycoplasma Detection Kit, Sigma). Frozen stocks were generated from authenticated Mycoplasma-free cultures.
as §5, §6
assays have been previously described.7, 8, 11, 12, 15-20 […]
7, 8, 11, 12, 15-20 Inhibitory effects of the novel analogs on de novo thymidylate biosynthesis and de novo purine nucleotide biosynthesis were tested by incubating drugs with thymidine (10 μM) and adenosine (60 μM), respectively. Incubation with glycine (130 µM) was used to assess the potential involvement of mitochondrial C1 targeted agents.15 To identify multiple metabolic targets, metabolite additions were added in combination.7, 8, 11, 12, 15-19 Finally, to distinguish targeting between the folate-dependent purine biosynthetic enzymes glycinamide ribonucleotide formyltransferase (GARFTase) and 5-aminoimidazole-4-carboxamide (AICA) ribonucleotide formyltransferase (AICARFTase), co-incubation experiments were performed using AICA hydrochloride (320 μM). 7, 8, 11, 12, […]
Statistics. The biological data reflect at least three experimental replicates. All statistical comparisons were performed using unpaired t-tests. Biological data are presented as mean values +/- standard errors using data without transformation.

RT16 (FRα) CHO cells = assay: Cell proliferation assay, RT16 CHO cells expressing human FRα; format: cell-based, Chinese hamster; settings: for IC50: Cricetulus griseus, RT16, 96 h, 0-1000 nM, mean (standard error), 3-5 experiments; for RFC/FRα Selectivity ratios: ratio of IC50 PC43-10 (RFC) to IC50 RT16 (FRα)
From the text: as §1, §2, §3, §4, §5, §6, §7, §8

IC50 [2] [nM] | Structure (SMILES) | IC50 (PC43-10 (RFC) CHO cells) [nM] | IC50 [1] [nM] | IC50 (RT16 (FRα) CHO cells) [nM] | RFC/FRα Selectivity ratios (RT16 (FRα) CHO cells) | greater potency than the corresponding 6-desmethyl analogue 3, KB cells ([2]; KB cells, relative to compound 3) [fold]
28.5 | Cc1[nH]c2nc(N)[nH]c(=O)c2c1CCc1ccc(C(=O)N[C@@H](CCC(=O)O)C(=O)O)cc1 [Compound 5] | > 1000 | > 1000 | 94.8 | >10.5 | 
49.9 | Cc1[nH]c2nc(N)[nH]c(=O)c2c1CCCc1ccc(C(=O)N[C@@H](CCC(=O)O)C(=O)O)cc1 [Compound 6] | > 1000 | > 1000 | 63.8 | >15.7 | 
77.3 | Nc1nc2[nH]cc(CCc3ccc(C(=O)N[C@@H](CCC(=O)O)C(=O)O)c(F)c3)c2c(=O)[nH]1 [Compound 4] | 169 | > 1000 | 6.76 | 25 | 
3.43 | Cc1[nH]c2nc(N)[nH]c(=O)c2c1CCc1ccc(C(=O)N[C@@H](CCC(=O)O)C(=O)O)s1 [Compound 7] | > 1000 | > 1000 | 2.53 | >395 | 242
347 | Cc1[nH]c2nc(N)[nH]c(=O)c2c1CCc1ccc(C(=O)N[C@@H](CCC(=O)O)C(=O)O)c(F)c1 [Compound 8] | > 1000 | > 1000 | 100 | >10 | 
9.95 | Nc1nc2[nH]cc(CCc3ccc(C(=O)N[C@@H](CCC(=O)O)C(=O)O)cc3)c2c(=O)[nH]1 [Compound 1, reference compound] | 30.6 | > 1000 | 14 |  | 
 | Nc1nc2[nH]cc(CCCc3ccc(C(=O)N[C@@H](CCC(=O)O)C(=O)O)cc3)c2c(=O)[nH]1 [Compound 2] |  | > 1000 | 47.9 |  | 
833 | Nc1nc2[nH]cc(CCc3ccc(C(=O)N[C@@H](CCC(=O)O)C(=O)O)s3)c2c(=O)[nH]1 [Compound 3] | 59.9 | > 1000 | 550 | 0.11 | 
